Reference: patent US8278337B2, “Substituted pyridines that are JNK inhibitors” (Merck Sharp & Dohme, priority 2006, dated 2012)
“And” between values parts separate entries of the source, which are not always exact repeats. Identical values can stand only once. Like-named read-outs stand apart in the source and are kept apart here.

Target: JNK1 (Homo sapiens, UniProt P45983)
Assay: DELFIA kinase assay, JNK1
Assay type: biochemical
In short: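 Enzyme (2 nM JNK1) was preincubated 10 min with 0–100 μM compound in HEPES pH 7.3 with 5% DMSO, then reacted 30 min at room temperature with biotinylated GST-ATF2 (6 ug/mL). Final ATP was 7 uM for JNK1, 4 uM for JNK2 and 2 uM for JNK3. Phospho-ATF2 was detected by DELFIA europium fluorescence (ex 340, em 615 nm).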

[1] = DELFIA assay, 2 nM JNK1, 7 uM ATP, 10 min pre-incubation, second table, read-out: JNK 1 IC50
[2] = DELFIA, biotinylated GST-ATF2 substrate, 10 minute pre-incubation, final ATP 7 uM

Chain of JNK1 (P45983 whole entry, species assumed): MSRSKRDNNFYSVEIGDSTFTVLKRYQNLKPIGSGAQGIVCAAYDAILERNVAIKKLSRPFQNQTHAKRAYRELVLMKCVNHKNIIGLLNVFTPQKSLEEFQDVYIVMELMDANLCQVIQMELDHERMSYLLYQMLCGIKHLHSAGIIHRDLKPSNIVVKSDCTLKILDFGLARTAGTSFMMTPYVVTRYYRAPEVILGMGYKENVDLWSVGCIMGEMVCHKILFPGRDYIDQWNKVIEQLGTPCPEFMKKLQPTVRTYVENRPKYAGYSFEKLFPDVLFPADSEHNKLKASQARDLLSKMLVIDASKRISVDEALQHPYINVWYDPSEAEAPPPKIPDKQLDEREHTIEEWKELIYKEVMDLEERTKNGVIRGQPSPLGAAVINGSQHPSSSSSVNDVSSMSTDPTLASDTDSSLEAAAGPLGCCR

Structure (SMILES) | IC50 (DELFIA assay, 2 nM JNK1, 7 uM ATP, 10 min pre-incubation) [nM] | IC50 [1] [nM] | IC50 [2]
CC(C)NC(=O)c1cccc(C(=O)NCc2cnn(-c3ncccn3)c2)n1 [Compound 160] |  |  | 102 to 959 nM
CCOC(=O)N1CCC(NC(=O)c2cccc(N(C)CCc3ccncc3)n2)CC1 [Compound 394] |  |  | > 1000 nM
CS(=O)(=O)c1ccc(-n2cc(CNC(=O)c3cccc(-n4cc(I)cn4)n3)cn2)cc1 [Compound 292] |  |  | 4 to 97 nM
CC(C)NC(=O)c1cccc(C(=O)NCc2cnn(-c3ccc(S(N)(=O)=O)cc3)c2)n1 [Compound 241] |  | 7 | 4 to 97 nM and 4 to 19 nM
CC(C)NC(=O)c1cccc(C(=O)NCc2cnn(C)c2)n1 [Compound 116] |  |  | > 1000 nM and 1030 to 10000 nM
CC(C)(C)NC(=O)c1cccc(C(=O)NCc2ccc3nc(N)sc3c2)n1 [Compound 53] |  |  | 102 to 959 nM
CC(C)NC(=O)c1cccc(C(=O)NCc2nc3ccccc3n2C)n1 [Compound 107] |  |  | > 1000 nM and 1030 to 10000 nM
CS(=O)(=O)c1ccc(-n2cc(CNC(=O)c3cccc(C(=O)NC4CCC4)n3)cn2)cc1 [Compound 76] |  | 10 | 4 to 19 nM and 4 to 97 nM
CCCNC(=O)c1cccc(C(=O)NCc2ccc3nc(N)sc3c2)n1 [Compound 65] |  |  | 102 to 959 nM
O=C(NCc1cnn(-c2cccc(C(F)(F)F)c2)c1)c1cccc(N2Cc3ccccc3C2)n1 [Compound 344] |  |  | > 1000 nM
CCS(=O)(=O)N1CCC(NC(=O)c2cccc(C(=O)NCc3ccc(S(C)(=O)=O)cc3)n2)CC1 [Compound 60] |  |  | > 1000 nM
Cc1cnn(-c2cccc(C(=O)NCc3ccc(S(C)(=O)=O)cc3)n2)c1 [Compound 323] |  |  | 1030 to 10000 nM and > 1000 nM
CCOC(=O)N1CCC(NC(=O)c2cccc(NCc3ccc4c(c3)OCO4)n2)CC1 [Compound 392] |  |  | > 1000 nM
CC(C)NC(=O)c1cccc(C(=O)NCc2cnn(-c3cnc4nccn4c3)c2)n1 [Compound 213] |  |  | 102 to 959 nM
CC(C)NC(=O)c1cccc(C(=O)NCc2ccc(-c3ccc(S(C)(=O)=O)cc3)nc2)n1 [Compound 181] |  |  | 102 to 959 nM
Cc1cc(CNC(=O)c2cccc(C(=O)NC(C)C)n2)nn1C [Compound 103] |  |  | 1030 to 10000 nM and > 1000 nM
CC(C)C[C@@H](CO)NC(=O)c1cccc(C(=O)NCc2ccc3nc(N)sc3c2)n1 [Compound 21] |  |  | 102 to 959 nM
CC(C)NC(=O)c1cccc(C(=O)NCc2cnn(-c3ccc4nccnc4c3)c2)n1 [Compound 151] |  | 13 | 4 to 19 nM and 4 to 97 nM
CC(C)NC(=O)c1cccc(C(=O)NCc2cnn(-c3cncc(F)c3)c2)n1 [Compound 153] |  |  | 4 to 97 nM
Nc1nc2ccc(CNC(=O)c3cccc(CO)n3)cc2s1 [Compound 63] |  |  | 1030 to 10000 nM and > 1000 nM
CC(C)NC(=O)c1cccc(C(=O)NCc2ccc(-c3cccc(Cl)c3)nc2)n1 [Compound 176] |  |  | 102 to 959 nM
CC(C)NC(=O)c1cccc(C(=O)NCC2CCN(C(=O)OC(C)(C)C)C2)n1 (stereo not drawn) [Compound 95] |  |  | > 1000 nM and 1030 to 10000 nM
CC(C)NC(=O)c1cccc(C(=O)NC(C)c2ccc(S(C)(=O)=O)cc2)n1 (stereo not drawn) [Compound 121] |  |  | 102 to 959 nM
CS(=O)(=O)c1ccc(CNC(=O)c2cccc(C(=O)NC3CCN(c4ccc5ccccc5n4)CC3)n2)cc1 [Compound 276] |  |  | > 1000 nM
O=C(NCc1cnn(-c2cccc(C(F)(F)F)c2)c1)c1cccc(N2CCCC2)n1 [Compound 343] |  |  | 1030 to 10000 nM and > 1000 nM

Structure (SMILES) | IC50 (DELFIA assay, 2 nM JNK1, 7 uM ATP, 10 min pre-incubation) [nM] | IC50 [1] [nM] | IC50 [2]
CS(=O)(=O)c1ccc(-n2cc(CNC(=O)c3cccc(-n4cccn4)n3)cn2)cc1 [Compound 293] |  |  | 102 to 959 nM
CC(C)NC(=O)c1cccc(C(=O)NCc2cccc(Cl)c2)n1 [Compound 96] |  |  | 102 to 959 nM
CCC(C)NC(=O)c1cccc(C(=O)NCc2ccc3nc(N)sc3c2)n1 (stereo not drawn) [Compound 7] |  |  | 4 to 97 nM
CC(C)NC(=O)c1cccc(C(=O)Nc2cccnc2)n1 [Compound 90] |  |  | > 1000 nM and 1030 to 10000 nM
CCOC(=O)N1CCC(NC(=O)c2cccc(C(=O)NCc3ccc(-n4cccn4)cc3)n2)CC1 [Compound 72] |  |  | 102 to 959 nM
CC(C)NC(=O)c1cccc(C(=O)NCc2cncc(-c3ccc(S(C)(=O)=O)cc3)c2)n1 [Compound 255] |  |  | 4 to 97 nM
CC(C)CNc1cccc(C(=O)NCc2ccc(S(C)(=O)=O)cc2)n1 [Compound 337] |  |  | > 1000 nM and 1030 to 10000 nM
CCOC(=O)N1CCC(NC(=O)c2cccc(NC(=O)Cc3ccc4c(c3)OCO4)n2)CC1 [Compound 401] |  |  | > 1000 nM and 1030 to 10000 nM
CC(C)NC(=O)c1cccc(C(=O)NCc2ccc(-c3cccc(C#N)c3)nc2)n1 [Compound 178] |  |  | 102 to 959 nM
Cc1cccc(-c2ccc(CNC(=O)c3cccc(C(=O)NC(C)C)n3)cn2)c1 [Compound 174] |  |  | 102 to 959 nM
CS(=O)(=O)c1ccc(CNC(=O)c2cccc(-c3ccc4c(c3)OCO4)n2)cc1 [Compound 332] |  |  | 102 to 959 nM
O=C(NCc1cnn(-c2cccc(C(F)(F)F)c2)c1)c1cccc(-c2cc3ccccc3[nH]2)n1 [Compound 347] |  |  | 1030 to 10000 nM and > 1000 nM
CS(=O)(=O)c1ccc(CNC(=O)c2cccc(C(=O)NC3CCN(C(N)=O)CC3)n2)cc1 [Compound 55] |  |  | 102 to 959 nM
CS(=O)(=O)c1ccc(CNC(=O)c2cccc(-n3cc(Br)cn3)n2)cc1 [Compound 328] |  |  | 102 to 959 nM
CC(C)NC(=O)c1cccc(C(=O)NCc2cnn(-c3cncnc3)c2)n1 [Compound 145] |  |  | 102 to 959 nM
CC(C)NC(=O)c1cccc(C(=O)NCc2cnn(-c3nccs3)c2)n1 [Compound 163] |  |  | 102 to 959 nM
CCNC(=O)c1cc(-c2cccs2)cc(C(=O)NCc2ccc(S(C)(=O)=O)cc2)n1 [Compound 415] |  |  | > 1000 nM and 1030 to 10000 nM
CS(=O)(=O)c1ccc(CNC(=O)c2cccc(-c3ccccn3)n2)cc1 [Compound 317] |  |  | > 1000 nM and 1030 to 10000 nM
CC(C)NC(=O)c1cc(O)cc(C(=O)NCc2cnn(-c3ccc4nccnc4c3)c2)n1 [Compound 436] |  |  | 4 to 97 nM
CC(C)NC(=O)c1cccc(C(=O)NCc2cccc(-c3ccc(S(C)(=O)=O)cc3)c2)n1 [Compound 192] |  |  | 4 to 97 nM
CC(C)NC(=O)c1cccc(C(=O)NCc2ccc(N3CCCC3=O)cc2)n1 [Compound 120] |  |  | 102 to 959 nM
Cc1cccc(-n2cc(CNC(=O)c3nc(C(=O)NC(C)C)ccc3F)cn2)c1 [Compound 429] |  |  | 102 to 959 nM
CCNC(=O)c1cccc(C(=O)NCc2ccc3nc(N)sc3c2)n1 [Compound 14] |  |  | > 1000 nM
Nc1nc2ccc(CNC(=O)c3cccc(-n4cccn4)n3)cc2s1 [Compound 264] |  |  | 102 to 959 nM

More lines, now with the values ahead:

IC50 (DELFIA assay, 2 nM JNK1, 7 uM ATP, 10 min pre-incubation) [nM] | IC50 [1] [nM] | IC50 [2] | Structure (SMILES)
14 | 14 | 4 to 19 nM and 4 to 97 nM | Cc1ccc2cc(-n3cc(CNC(=O)c4cccc(C(=O)NC(C)C)n4)cn3)ccc2n1 [Compound 149]
 |  | > 1000 nM | CCOC(=O)N1CCC(NC(=O)c2cccc(C(=O)NCC(C)C)n2)CC1 [Compound 41]
 |  | 102 to 959 nM | CC(C)NC(=O)c1cccc(C(=O)NCc2cnn(C(C)C)c2)n1 [Compound 117]
 |  | > 1000 nM and 1030 to 10000 nM | CC(C)NC(=O)c1cccc(C(=O)NCC2CCN(c3cccc(C#N)c3)CC2)n1 [Compound 419]
 |  | > 1000 nM | Nc1nc2ccc(CNC(=O)c3cccc(C(=O)NCCN4CCOCC4)n3)cc2s1 [Compound 26]
 |  | 1030 to 10000 nM and > 1000 nM | O=C(NCc1cnn(-c2cccc(C(F)(F)F)c2)c1)c1cccc(N2CCC(c3ccccn3)C2)n1 (stereo not drawn) [Compound 346]
 |  | 102 to 959 nM | CC(C)NC(=O)c1cccc(C(=O)NCc2ccc3c(c2)OCO3)n1 [Compound 89]
 |  | 4 to 97 nM | CC(C)NC(=O)c1cccc(C(=O)NCc2cnn(-c3cccc(Cl)c3)c2)n1 [Compound 132]
 |  | 102 to 959 nM | CCOC(=O)N1CCC(NC(=O)c2cccc(C(=O)NCc3ccc4c(c3)OCO4)n2)CC1 [Compound 44]
 |  | 102 to 959 nM | CS(=O)(=O)c1ccc(CNC(=O)c2cccc(-n3cc(-c4ccccn4)cn3)n2)cc1 [Compound 334]
 |  | > 1000 nM and 1030 to 10000 nM | Cc1cnc(CNC(=O)c2cccc(C(=O)NC(C)C)n2)cn1 [Compound 92]
 |  | 102 to 959 nM | CC(C)NC(=O)c1cccc(C(=O)NCc2cnn(-c3ccccc3Cl)c2)n1 [Compound 157]
 |  | 102 to 959 nM | CC(C)NC(=O)c1cccc(C(=O)NCc2ccc(N)nc2)n1 [Compound 113]
 |  | 102 to 959 nM | CS(=O)(=O)c1ccc(CNC(=O)c2cccc(-n3cc(-c4cnccn4)cn3)n2)cc1 [Compound 335]
 |  | 4 to 97 nM | CC(C)NC(=O)c1cccc(C(=O)NCc2ccc3nc(N)sc3c2)n1 [Compound 5]
 |  | > 1000 nM and 1030 to 10000 nM | CCOC(=O)c1cnn(-c2cccc(C(=O)NCc3ccc(S(C)(=O)=O)cc3)n2)c1 [Compound 319]
 |  | 4 to 97 nM | CC(C)NC(=O)c1cccc(C(=O)NCc2cccc(-c3cccc(C#N)c3)c2)n1 [Compound 189]
 |  | 102 to 959 nM | CC(C)NC(=O)c1cccc(C(=O)NCc2ccc(-c3ccc(Cl)cc3)nc2)n1 [Compound 182]
 |  | 4 to 19 nM and 4 to 97 nM | Cc1ccc(-n2cc(CNC(=O)c3cccc(C(=O)NC(C)C)n3)cn2)cc1 [Compound 130]
 |  | > 1000 nM | Nc1nc2ccc(CNC(=O)c3cccc(C(=O)NCCCO)n3)cc2s1 [Compound 17]
 |  | 102 to 959 nM | Cc1ccc(-c2ccc(CNC(=O)c3cccc(C(=O)NC(C)C)n3)cn2)cc1 [Compound 177]
 |  | > 1000 nM and 1030 to 10000 nM | CC(=O)N(C)c1cccc(C(=O)NCc2cnn(-c3cccc(C(F)(F)F)c3)c2)n1 [Compound 363]
 |  | 102 to 959 nM | CCOC(=O)N1CCC(NC(=O)c2cccc(C(=O)NCc3ccc(OC)c(OC)c3)n2)CC1 [Compound 74]
 |  | > 1000 nM | Nc1nc2ccc(CNC(=O)c3cccc(C(=O)NCCO)n3)cc2s1 [Compound 15]
 |  | > 1000 nM | CNC(=O)c1cccc(C(=O)NCc2ccc3nc(N)sc3c2)n1 [Compound 47]
 |  | > 1000 nM | CCOC(=O)N1CCC(NC(=O)c2cccc(C(=O)NCCc3ccccc3)n2)CC1 [Compound 45]
 |  | 102 to 959 nM | COC(=O)[C@H](C)NC(=O)c1cccc(C(=O)NCc2ccc3nc(N)sc3c2)n1 [Compound 75]
 |  | 4 to 97 nM | CC(C)NC(=O)c1cccc(C(=O)NCc2ccc3nc(NC(=O)N(C)C)sc3c2)n1 [Compound 207]
 |  | > 1000 nM | CCOC(=O)N1CCC(NC(=O)c2cccc(NCC3CCNCC3)n2)CC1 [Compound 395]
 |  | > 1000 nM | Nc1nc2ccc(CNC(=O)c3cccc(C(=O)N[C@H](CO)Cc4ccccc4)n3)cc2s1 [Compound 22]
